One series has as its target T1, Human MOR (Homo sapiens, UniProt P35372).
T1 construct: expressed in transfected cells; host or cells: HEK-293T
Nature of the series: cell-based. The source says:
(§1) Transfection. Human or mouse MOR cDNA was transfected alongside GαoB with RLuc8 inserted at position 91 (GαoB-RLuc8), Gβ1 (β1), and Gγ2 fused to the full-length mVenus at its N terminus (mVenus-γ2) into HEK-293T cells (5×10^6 cells/plate) in 10-cm dishes using PEI (Polysciences Inc.; Warrington, Pa.) in a 1:1 ratio diluted in Opti-MEM (Life Technologies Corp.; Grand Island, N.Y.) to assay for G protein activation as described previously (Rives, M.-L. et al. J. Biol. Chem. 2012, 287, 27050-4; Negri, A.; Rives, M.-L.; Caspers, M. J. et al. J. Chem. Inf. Model. 2013, 53, 521-526). Cells were maintained in the Dulbecco's Modified Eagle Medium (high glucose #11965; Life Technologies) supplemented with 10% FBS (Premium Select, Atlanta Biologicals; Atlanta, Ga.) and 100 U/mL penicillin and 100 μg/mL streptomycin (#15140, Life Technologies). After 24 hours the media was changed, and the experiment was performed 24 hours later (48 hours after transfection).
(§2) BRET. Transfected cells were dissociated and resuspended in phosphate-buffered saline (PBS). Approximately 200,000 cells/well were added to a black-framed, white well 96-well plate (#60050; Perkin Elmer; Waltham, Mass.). The microplate was centrifuged and the cells were resuspended in PBS. Then 5 μM of the luciferase substrate coelenterazine H was added to each well for 5 minutes. Following coelenterazine H addition, ligands were added and the BRET signal was measured at 5 minutes on a PHERAstar FS plate reader. Quantification of the BRET signal required calculating the ratio of the light emitted by the energy acceptor, mVenus (510-540 nm), over the light emitted by the energy donor, RLuc8 (485 nm). […] Dose response curves were fit using three-parameter logistics equation in GraphPad Prism 6.

Series [1] in a line: Pharmacokinetics and brain distribution after a single intraperitoneal dose. The note with it: i.p. 10 mg/kg, male C57BL/6 mice. Here is the method:
For each compound, a group of twenty four male mice were administered with a solution formulation of the drug in normal saline intraperitoneally at a dose of 10 mg/kg. Blood samples (approximately 60 μL) were collected under light isoflurane anesthesia from the retro orbital plexus at 0.08, 0.25, 0.5, 1, 2, 4, 8 and 24 hr. Plasma samples were separated by centrifugation of whole blood and stored below −70° C. until bioanalysis. Immediately after collection of blood, brain samples were collected from each mouse at 0.08, 0.25, 0.5, 1, 2, 4, 8 and 24 hr. Brain samples were homogenized using ice-cold phosphate buffer saline (pH 7.4) and homogenates were stored below −70° C. until analysis. Total homogenate volume was three times the tissue weight. All samples were processed for analysis by protein precipitation using acetonitrile (ACN) and analyzed with fit-for-purpose LC/MS/MS method (LLOQ-1.01 ng/mL in plasma and brain). Pharmacokinetic parameters were calculated using the non-compartmental analysis tool of Phoenix WinNonlin® (Version 6.3).

The target of another series is T2, Mouse MOR (Mus musculus, UniProt P42866).
T2 construct: expressed in transfected cells; host or cells: HEK-293T
In words: BRET G protein activation assay, HEK-293T cells transfected with mouse MOR. The class given is cell-based.
Description: as §1, §2

[2] abbreviates: BRET G protein activation, HEK-293T, mean ± SEM of independent trials, read-out: EC50 Mouse MOR.

Counter-ions that a name gives are not always drawn. Like-named read-outs stand apart in the source and are kept apart here. Where only a bound is given, the exact number is not on record here.

T1 sequence (P35372 whole entry): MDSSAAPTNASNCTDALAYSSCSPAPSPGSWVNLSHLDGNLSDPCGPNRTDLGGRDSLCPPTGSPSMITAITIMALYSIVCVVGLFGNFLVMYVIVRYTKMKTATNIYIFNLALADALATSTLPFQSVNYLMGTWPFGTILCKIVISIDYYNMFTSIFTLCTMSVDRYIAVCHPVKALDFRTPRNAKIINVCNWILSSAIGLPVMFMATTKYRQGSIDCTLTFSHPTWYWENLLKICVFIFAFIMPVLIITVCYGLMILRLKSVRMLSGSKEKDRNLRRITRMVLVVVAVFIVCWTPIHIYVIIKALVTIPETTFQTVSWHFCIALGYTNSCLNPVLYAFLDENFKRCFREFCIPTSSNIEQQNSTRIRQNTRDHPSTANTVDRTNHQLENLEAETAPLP
T2 sequence (P42866 whole entry): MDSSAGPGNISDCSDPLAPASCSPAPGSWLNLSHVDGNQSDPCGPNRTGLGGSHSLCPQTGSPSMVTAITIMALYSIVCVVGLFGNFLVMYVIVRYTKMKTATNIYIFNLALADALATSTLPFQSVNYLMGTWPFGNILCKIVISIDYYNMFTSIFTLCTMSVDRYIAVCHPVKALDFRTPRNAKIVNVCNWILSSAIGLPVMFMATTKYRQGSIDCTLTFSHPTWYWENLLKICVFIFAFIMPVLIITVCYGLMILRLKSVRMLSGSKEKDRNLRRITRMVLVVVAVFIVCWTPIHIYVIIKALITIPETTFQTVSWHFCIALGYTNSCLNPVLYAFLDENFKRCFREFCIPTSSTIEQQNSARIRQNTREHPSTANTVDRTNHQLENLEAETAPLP

On Human MOR, `COCCCNC1c2ccccc2N(C)S(=O)(=O)c2cc(Cl)ccc21` (centres unmarked) [compound 23, 3-Chloro-11-((3-methoxypropyl)amino)-6-methyl-6,11-dihydrodibenzo [c,f][1,2]thiazepine 5,5-dioxide] yielded an EC50 of 0.264 ± 0.0853 µM. In series [1] (brain), this compound gave an AUClast of 335.03 ng·h/g, a CL of 260.44 mL/min/kg, an MRTlast of 1.27 h and a T1/2 of 5.12 h. Further, in series [1] (brain), the Tmax came to 0.08 h. In series [1] (Tables 3 and 4), the “half-life compared with tianeptine” value is listed as “much longer half-life” and the “systemic exposure (AUC) compared with tianeptine” value is recorded as “higher systemic exposure (AUC)”. Besides, in series [1] (plasma), the AUClast was found to be 3058.80 ng·h/mL, the CL was 44.27 mL/min/kg, the Cmax was 1535.74 ng/mL and the MRTlast was 2.29 h. In series [1] (plasma), the T1/2 stood at 3.93 h and the Tmax was determined as 0.25 h. In addition, the EC50 on Mouse MOR (setting [2]) is 1.2 ± 0.03 µM.
For `CC(C)NC1c2ccccc2N(C)S(=O)(=O)c2cc(Cl)ccc21` (centres unmarked) [compound 22, 3-Chloro-11-(isopropylamino)-6-methyl-6,11-dihydrodibenzo [c,f][1,2]thiazepine 5,5-dioxide], the EC50 on Human MOR and at Mouse MOR (setting [2]) was below 10 µM in each case.
Turning to `CNC1c2ccccc2N(C)S(=O)(=O)c2cc(Cl)ccc21` (centres unmarked) [compound 20, 3-Chloro-6-methyl-11-(methylamino)-6,11-dihydrodibenzo [c,f][1,2]thiazepine 5,5-dioxide], the concentration giving a half-maximal response (EC50) on Human MOR and on Mouse MOR (setting [2]) was below 10 µM each time.
On to `CCOC(=O)CCCCCCNC1c2ccccc2N(C)S(=O)(=O)c2ccccc21` (centres unmarked) [compound 9, Ethyl 7-((6-methyl-5,5-dioxido-6,11-dihydrodibenzo[c,f][1,2]thiazepin-11-yl)amino)heptanoate], for which the EC50 on Human MOR and on Mouse MOR was below 10 µM each time.
In the case of `CN1c2ccccc2C(NCCCCCCC(=O)O)c2ccccc2S1(=O)=O` (centres unmarked) [compound 80, 7-((6-Methyl-5,5-dioxido-6,11-dihydrodibenzo[c,f][1,2]thiazepin-11-yl)amino)heptanoic acid hydrochloride salt], the concentration for a half-maximal effect (EC50) at Human MOR and on Mouse MOR was below 10 µM each time.
For the compound `CCCCCNC1c2ccccc2N(C)S(=O)(=O)c2ccccc21` (centres unmarked) [compound 8, 6-Methyl-11(pentylamino)-6,11-dihydrodibenzo[c,f][1,2]thiazepine 5,5-dioxide], the half-maximal effective concentration (EC50) on Human MOR and on Mouse MOR (setting [2]) was below 10 µM in each case.
On to `CN1c2ccccc2C(NCCCCC(=O)O)c2ccc(Cl)cc2S1(=O)=O` (centres unmarked) [compound 18, 5-((3-Chloro-6-methyl-5,5-dioxido-6,11-dihydrodibenzo[c,f][1,2]thiazepin-11-yl)amino)pentanoic acid], for which the EC50 at Human MOR and on Mouse MOR was below 10 µM throughout.
Take `CCOC(=O)CCCCNC1c2ccccc2N(C)S(=O)(=O)c2cc(Cl)ccc21` (centres unmarked) [compound 17, Ethyl 5-((3-chloro-6-methyl-5,5-dioxido-6,11-dihydrodibenzo[c,f][1,2]thiazepin-11-yl)amino)pentanoate]: the half-maximal effective concentration (EC50) on Human MOR and on Mouse MOR was below 10 µM in each case.
Turning to `CCOC(=O)CCCCCCNC1c2ccccc2N(C)S(=O)(=O)c2cc(SC)ccc21` (centres unmarked) [compound 45, Ethyl 7-((6-methyl-3-(methylthio)-5,5-dioxido-6,11-dihydrodibenzeo[c,f] [1,2] 1, 2lazepin-11-yl)amino) heptanotate], the 50% effective concentration (EC50) on Human MOR and at Mouse MOR (setting [2]) was below 10 µM in each case.
In the case of `CCCNC1c2ccccc2N(C)S(=O)(=O)c2cc(Cl)ccc21` (centres unmarked) [compound 21, 3-Chloro-6-methyl-11-(propylamino)-6,11-dihydrodibenzo [c,f][1,2]thiazepine 5,5-dioxide], the concentration giving a half-maximal response (EC50) at Human MOR and on Mouse MOR (setting [2]) was below 10 µM in each case.
As for `CCCCCNC1c2ccccc2N(C)S(=O)(=O)c2cc(Cl)ccc21` (centres unmarked) [compound 19, 3-Chloro-6-methyl-11-(pentylamino)-6,11-dihydrodibenzo [c,f][1,2]thiazepine 5,5-dioxide], the EC50 at Human MOR and on Mouse MOR (setting [2]) was below 10 µM in each case.

These data come from patent US10183919B2 (priority 2014, dated 2019).
